Data from the CheMixHub ionic liquid set.
± gives the uncertainty stated by the source.

Experiment: xn = mol fraction of the nth substance listed
Details: 101 kPa
[1] = 313.15 K, x2 = 0, x1 = 0.001799

CCCC[N+](C)(C)C.O=S(=O)([N-]S(=O)(=O)C(F)(F)F)C(F)(F)F + CC(O)C(C)O
viscosity (328.15 K, x2 = 0): 30 ± 1.7 mPa·s

CCCC[N+](C)(C)C.O=S(=O)([N-]S(=O)(=O)C(F)(F)F)C(F)(F)F + CC(O)CO
viscosity (323.15 K, x2 = 0): 35.6 ± 2 mPa·s | viscosity (323.15 K, x2 = 0.8843): 11.79 ± 0.71 mPa·s | viscosity (328.15 K, x2 = 0.1909): 19.2 ± 1.1 mPa·s | viscosity (333.15 K, x2 = 0.3054): 14.35 ± 0.85 mPa·s | viscosity (338.15 K, x2 = 0): 22.1 ± 1.3 mPa·s | viscosity (338.15 K, x2 = 0.3054): 12.44 ± 0.75 mPa·s | viscosity (338.15 K, x2 = 0.5274): 9.87 ± 0.6 mPa·s | viscosity (338.15 K, x2 = 0.8149): 7.45 ± 0.47 mPa·s | viscosity (343.15 K, x2 = 0): 19.2 ± 1.1 mPa·s | viscosity (348.15 K, x2 = 0): 16.81 ± 0.99 mPa·s | viscosity (348.15 K, x2 = 0.1909): 11.32 ± 0.68 mPa·s | viscosity (348.15 K, x2 = 0.5274): 7.89 ± 0.49 mPa·s | viscosity (348.15 K, x2 = 0.8149): 5.76 ± 0.38 mPa·s | viscosity (353.15 K, x2 = 0.8149): 5.53 ± 0.36 mPa·s

CCCC[N+](C)(C)C.O=S(=O)([N-]S(=O)(=O)C(F)(F)F)C(F)(F)F + CCC(O)CO
viscosity (323.15 K, x2 = 0.6289): 15.53 ± 0.92 mPa·s | viscosity (328.15 K, x2 = 0): 30 ± 1.7 mPa·s | viscosity (338.15 K, x2 = 0.2291): 14.17 ± 0.84 mPa·s | viscosity (338.15 K, x2 = 0.3543): 11.92 ± 0.72 mPa·s | viscosity (343.15 K, x2 = 0.2291): 12.41 ± 0.74 mPa·s | viscosity (348.15 K, x2 = 0.6289): 7.02 ± 0.45 mPa·s | viscosity (353.15 K, x2 = 0.5116): 7.12 ± 0.45 mPa·s | viscosity (353.15 K, x2 = 0.8622): 4.78 ± 0.32 mPa·s

CC(C)[C@H](N)C(=O)O + CCCCCCCCCCCCCCCC[n+]1ccccc1.O=C([O-])C(O)c1ccccc1 + O
electrical conductivity [1]: 0.0016 ± 0.0013 S/m

CC(C)[C@H](N)C(=O)O + CCCCCCCCCCCCCCCC[n+]1ccccc1.O=C([O-])c1ccccc1O + O
electrical conductivity (313.15 K, x1 = 0.001799, x2 = 0): 0.00161 ± 9.7e-05 S/m

C[C@@H](O)[C@H](N)C(=O)O + CCCCCCCCCCCCCCCC[n+]1ccccc1.[Cl-] + O
electrical conductivity (308.15 K, x1 = 2.018e-05, x2 = 0): 0.000218 ± 2e-06 S/m | electrical conductivity (308.15 K, x1 = 0.0002, x2 = 0): 7.7e-05 ± 1e-06 S/m | electrical conductivity (308.15 K, x1 = 0.0009182, x2 = 0): 0.000219 ± 2e-06 S/m

CC(C)[C@H](N)C(=O)O + CCCCCCCCCCCCCC[n+]1ccccc1.O=C([O-])C(O)c1ccccc1 + O
electrical conductivity [1]: 0.00161 ± 0.00067 S/m
